{
  "source": "patent US5670520A",
  "about": "“Method for inhibiting virus replication in mammalian cells using carbostyil derivatives” (Otsuka Pharmaceutical Co., Ltd., priority 1996, dated 1997)",
  "key": {"U937 cells": {"tested_on": "U937 cells", "test": "Intracellular phosphorylated AZT in U937 cells (DEAE filter)", "details": "0-250 μM vesnarinone or 0-100 nM dipyridamole; 2 hr"}, "human T cells [1]": {"tested_on": "human T cells", "test": "[3H]thymidine incorporation by PHA-stimulated human T cells", "format": "cell-based", "details": "10 μg/ml PHA 48 hrs, 0-250 μM vesnarinone, 6 hrs pulse", "experimental": "More specifically, human primary T cells were separated from peripheral blood obtained by leukopheresis of healthy donors. Mononuclear cell suspensions were prepared by Ficoll-Hypaque gradient centrifugation, and T cells were obtained by E-rosette enrichment as described by Kumagai et al, J. Cell. Physiol., 137:329 (1988).\nThen, 1.0 μCi of [^3 H]thymidine (6.7 Ci/mmole, ICN), was added to 2.0×10^6 cells (100 μl), and the cells were pulse-labeled for 6 hrs."}, "[2]": {"tested_on": "Akata, P3HR1, Jijoye, Raji", "test": "Cell growth of Burkitt's lymphoma cell lines, 7 days", "format": "cell-based", "details": "Homo sapiens, Burkitts lymphoma cell, 168 h; read-out: cell growth (cell numbers) relative to control cultures"}, "human T cells [3]": {"tested_on": "human T cells", "test": "Cellular DNA content by flow cytometry (propidium iodide)", "format": "cell-based", "details": "within 48 hrs; 250 μM vesnarinone, 15 nM aphidicolin or 100 μM deferoxamine", "experimental": "Next, cellular DNA content was evaluated over the 0-120 hrs treatment period. More specifically, 10^6 T cells treated in the same manner as described above, were fixed with 70% (v/v) ethanol at 4° C. overnight, centrifuged and washed with phosphate buffered saline (PBS). The fixed cells were incubated with 0.5 ml of 0.25 mg/ml ribonuclease (Sigma, St. Louis, Mo.) in PBS at 37° C. for 10 min. The cell suspension was mixed with 0.5 ml of a 50 μg/ml propidium iodide (Calbiochem, La Jolla, Calif.) solution in PBS, and after 60 min analyzed by flow cytometry (EPICS Profile, Coulter, Hialeah, Fla.), collecting red fluorescence (>600 nm) with 488 nm excitation."}, "[4]": {"test": "MTT cell viability of MRC5 cells", "format": "cell-based", "details": "human, mrc5 cells, read-out: MTT Cell Viability (% of control)", "experimental": "(§1) More specifically, 5.0 μg/ml of MTT in Eagles MEM supplemented with 2.0% (v/v) fetal bovine serum was added to each well, and incubated at 37° C. for 6 hr. The cells were then solubilized by adding 30% (w/v) SDS in 0.02N HCl. The cultures were incubated overnight at 37° C. Then, the optical density was measured at 570 nm on a spectrophotometer."}, "MRC5 cells": {"tested_on": "MRC5 cells", "test": "MTT cell viability of MRC5 cells", "format": "cell-based", "experimental": "as §1"}, "human T cells [5]": {"tested_on": "human T cells", "test": "30 min [3H]thymidine, [3H]uridine and [3H]amino acid incorporation", "format": "cell-based", "details": "30 min label, 250 μM vesnarinone", "experimental": "Next, the PHA-stimulated T cells were labelled for 30 min with 5.0 μCi/ml of an [^3 H]amino acid mixture (1.0 mCi/ml, Amersham, Arlington Heights, Ill.), washed twice with ice-cold PBS, and then lysed in PBS containing 1.0% (w/v) SDS, followed by addition of a mixture of 7.0% (w/v) trichloroacetic acid and 1.0% (w/v) pyrophosphate. The precipitates were loaded on GF/A filters, and washed extensively with a mixture of 7.0% (w/v) trichloroacetic acid and 1.0% (w/v) pyrophosphate. Radioactivity was measured by scintillation counting."}, "Raji cells": {"tested_on": "Raji cells", "test": "[3H]adenosine / [3H]adenine transport in Raji cells", "details": "0-750 μM vesnarinone or 0-100 μM dipyridamole, 1 min pulse"}, "human T cells [6]": {"tested_on": "human T cells", "test": "Cell numbers of PHA-stimulated human T cells over 120 hrs", "format": "cell-based", "details": "10 μg/ml PHA, 0-120 hrs; 250 μM vesnarinone, 15 nM aphidicolin or 100 μM deferoxamine", "experimental": "Next, the effects of the above-described drugs on cell proliferation were evaluated over a period of 120 hrs."}, "CHO cells": {"tested_on": "CHO cells", "test": "Rapid uptake of [3H]thymidine / [3H]AZT in CHO cells", "details": "0-250 μM vesnarinone, 1 min", "method": "Then, 1.0 μCi/ml of [^3 H]thymidine (6.7 Ci/mmol) or 1.0 μCi/ml of [^3 H]AZT (14 Ci/mmol) was added, and the mixture was immediately layered on silicone oil/paraffin oil (96:6) in microfuge tubes. […] The water and oil phases were discarded, and radioactivity of the cell pellets was measured using liquid scintillation counting."}, "EBV": {"tested_on": "EBV", "test": "In situ hybridization of EBV DNA in anti-IgG stimulated DMSO-released Akata cells", "format": "cell-based, Epstein-Barr virus", "details": "20 hrs after 50 μg/ml anti-IgG; vesnarinone 0-100 μg/ml; acyclovir pretreatment", "experimental": "The human Burkitt's lymphoma cell line, Akata, provided by Dr. Kenzo Takada (Takada, Int. J. Cancer, 33:27-32 (1984); and Takada et al, Virus Genes, 5:147-156 (1991)), was cultured at 37° C. in RPMI 1640 medium supplemented with 15% (v/v) heat-inactivated FCS, and 20 μg/ml gentamicin.\nThe cell progression of Akata cells was arrested by culturing of the cells for 96 hrs in the presence of 1.5% (y/v) DMSO (Sigma, St. Louis, Mo.) (Sawai et al, Exp. Cell Res., 187:4-10 (1990); and Takase et al, Cell Growth Differ., 3:515-521 (1992)).\n1 hr after transfer (release from DMSO), a goat F(ab')2 fragment of anti-human IgG antibody (Organon Teknika, Durham, N.C.) was added at a concentration of 50 μg/ml to induce productive EBV replication (Takagi et al, Virology, 185:309-315 (1991)).\n3 hrs and 20 hrs after treatment with the anti-IgG, the cells were harvested for flow cytometric detection of the BamHI Z replication activator (ZEBRA), and for in situ detection of EBV DNA, respectively. […]\nMore specifically, cells coated on a glass slide were fixed in acetone at room temperature for 10 min. […] Positivity for EBV DNA was determined by the presence of red-colored grains and at least 1000 cells were examined under light microscopy. […]"}},
  "note": "Like-named read-outs stand apart in the source and are kept apart here.",
  "data": [
    {"smiles": "COc1ccc(C(=O)N2CCN(c3ccc4c(c3)CCC(=O)N4)CC2)cc1OC", "note": "[vesnarinone, 3,4-dihydro-6-[4-(3,4-dimethoxybenzoyl)-1-piperazinyl]-2(1H)-quinoline]", "values": [
      {"measurement": "intracellular concentration of phosphorylated AZT", "setting": "U937 cells", "value": "increased the concentration of phosphorylated AZT in U937 cells in a dose-dependent manner"},
      {"measurement": "[3H]thymidine incorporation into DNA", "setting": "human T cells [1]", "value": "inhibits [^3 H]thymidine incorporation into DNA in a dose-dependent manner"},
      {"measurement": "activity at 20 µg/mL", "setting": "[2]", "value": "80 to 90", "unit": "%"},
      {"measurement": "entry into S and G2/M phases (cellular DNA content)", "setting": "human T cells [3]", "value": "a certain proportion of the cells entered both S and G2/M phases of the cell cycle"},
      {"measurement": "viability", "setting": "[4]; vesnarinone 3.88 μg/ml alone", "value": 100, "unit": "%"},
      {"measurement": "viability", "setting": "[4]; vesnarinone 7.75 μg/ml alone", "value": 98, "unit": "%"},
      {"measurement": "viability", "setting": "[4]; vesnarinone 15.5 μg/ml alone", "value": 98, "unit": "%"},
      {"measurement": "viability", "setting": "[4]; vesnarinone 31 μg/ml alone", "value": 90, "unit": "%"},
      {"measurement": "MTT Cell Viability (% of control)", "setting": "MRC5 cells; vesnarinone 3.88 μg/ml alone", "value": "100 % of control"},
      {"measurement": "MTT Cell Viability (% of control)", "setting": "MRC5 cells; vesnarinone 7.75 μg/ml alone", "value": "98 % of control"},
      {"measurement": "MTT Cell Viability (% of control)", "setting": "MRC5 cells; vesnarinone 15.5 μg/ml alone", "value": "98 % of control"},
      {"measurement": "MTT Cell Viability (% of control)", "setting": "MRC5 cells; vesnarinone 31 μg/ml alone", "value": "90 % of control"},
      {"measurement": "cytotoxicity by MTT", "setting": "MRC5 cells; vesnarinone 3.88-31 μg/ml, alone or with DHPG 0.625-5.000 μM", "value": "little or no cytotoxicity was observed"},
      {"measurement": "[3H]amino acid incorporation", "setting": "human T cells [5]", "value": "did not inhibit [^3 H]amino acid incorporation"},
      {"measurement": "[3H]uridine incorporation, brief exposure", "setting": "human T cells [5]; 15 nM aphidicolin or 100 μM deferoxamine", "value": "rapidly inhibited [^3 H]uridine incorporation"},
      {"measurement": "[3H]adenosine and [3H]adenine transport", "setting": "Raji cells", "value": "inhibitory effects on nucleoside and nucleobase transport in vitro were observed within the therapeutic range"},
      {"measurement": "cell proliferation (cell number)", "setting": "human T cells [6]", "value": "inhibited cell proliferation when compared to control cultures, but increases in cell number were nonetheless observed"},
      {"measurement": "uptake of [3H]AZT", "setting": "CHO cells", "value": "the uptake of [^3 H]AZT was not affected by vesnarinone"},
      {"measurement": "uptake of [3H]thymidine", "setting": "CHO cells", "value": "inhibits the uptake of [^3 H]thymidine in a dose-dependent manner"},
      {"measurement": "population of EBV producing cells (positivity for EBV DNA)", "setting": "EBV", "value": "gradually decreased in the presence of vesnarinone in a dose-dependent manner"}
    ]}
  ]
}
